Key:
Format in all cases: cell-based
Details in all cases: unsaturated fatty acid concentration of 200 µM, cells stimulated with known bitter agonist
T2R61 (TAS2R43) = target: T1, T2R61 (TAS2R43) (Homo sapiens, UniProt P59537); experiment: FLIPR calcium assay, block of bitter agonist response, T2R61
T1 construct: expressed in transfected cells; host or cells: cells expressing a promiscuous G protein (e.g., G16g44)
T1 sequence (P59537 1-309): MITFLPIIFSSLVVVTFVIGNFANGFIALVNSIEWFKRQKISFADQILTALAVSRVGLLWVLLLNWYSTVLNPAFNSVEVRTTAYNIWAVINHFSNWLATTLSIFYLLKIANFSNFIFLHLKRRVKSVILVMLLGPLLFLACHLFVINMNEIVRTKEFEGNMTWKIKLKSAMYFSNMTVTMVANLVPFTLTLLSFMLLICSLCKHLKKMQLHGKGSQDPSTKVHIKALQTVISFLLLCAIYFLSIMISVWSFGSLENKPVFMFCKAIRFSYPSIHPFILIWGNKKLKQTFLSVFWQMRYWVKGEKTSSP
Method: (§1) Cells expressing a promiscuous […] (e.g., G16g44) were transfected with vectors encoding 18 functional bitter receptor cDNAs, with one receptor per transfection. The cells were transfected directly in 384-well format high-density plates and incubated for 28 hours. Later, cells were loaded with the Ca-specific dye Fluo4-AM. After an incubation of 60 minutes, excess dye is washed off, and cells are stimulated with a known bitter agonist for each receptor and various unsaturated fatty acids. Changes in intracellular fluorescence are recorded using a FLIPR instrument. Bitter antagonists and corresponding receptors are identified based on percentage inhibition of agonist's activity on a given receptor.
(§2) The above protocol was carried out using 16 different unsaturated fatty acids. A particular T2R receptor was identified as being antagonized by a particular unsaturated fatty acid if it triggered a >25% block of agonist's cellular response at 200 μM concentration of unsaturated fatty acid. […] Table 2 indicates the sixteen (16) compounds tested by their compound number from Table 1 above. The 18 bitter taste receptors screened are the human bitter taste receptors we named. […]

T2R65 (TAS2R19) = target: T2, T2R65 (TAS2R19) (Homo sapiens, UniProt P59542); experiment: FLIPR calcium assay, block of bitter agonist response, T2R65
T2 construct: expressed in transfected cells; host or cells: cells expressing a promiscuous G protein (e.g., G16g44)
T2 sequence (P59542 1-299): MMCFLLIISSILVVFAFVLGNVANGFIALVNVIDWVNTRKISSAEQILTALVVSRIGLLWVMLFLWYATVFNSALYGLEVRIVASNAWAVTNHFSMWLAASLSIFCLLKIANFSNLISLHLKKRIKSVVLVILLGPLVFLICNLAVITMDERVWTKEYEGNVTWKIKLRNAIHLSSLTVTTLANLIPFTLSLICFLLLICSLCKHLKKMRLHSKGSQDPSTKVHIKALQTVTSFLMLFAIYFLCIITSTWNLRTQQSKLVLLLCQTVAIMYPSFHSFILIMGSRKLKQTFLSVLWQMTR
Method: as §1, §2

T2R09 (TAS2R09) = target: T3, T2R09 (TAS2R09) (Homo sapiens, UniProt Q9NYW1); experiment: FLIPR calcium assay, block of bitter agonist response, T2R09
T3 construct: expressed in transfected cells; host or cells: cells expressing a promiscuous G protein (e.g., G16g44)
T3 sequence (Q9NYW1 1-312): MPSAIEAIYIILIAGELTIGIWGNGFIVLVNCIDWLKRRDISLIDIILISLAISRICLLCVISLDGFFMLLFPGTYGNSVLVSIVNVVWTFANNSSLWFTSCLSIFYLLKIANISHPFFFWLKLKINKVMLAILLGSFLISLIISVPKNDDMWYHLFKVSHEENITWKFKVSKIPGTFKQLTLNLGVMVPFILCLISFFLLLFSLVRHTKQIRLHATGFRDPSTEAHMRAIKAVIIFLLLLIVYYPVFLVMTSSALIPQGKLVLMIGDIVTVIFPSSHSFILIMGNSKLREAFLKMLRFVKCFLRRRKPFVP
Method: as §1, §2

T2R75 (TAS2R46) = target: T4, T2R75 (TAS2R46) (Homo sapiens, UniProt P59540); experiment: FLIPR calcium assay, block of bitter agonist response, T2R75
T4 construct: expressed in transfected cells; host or cells: cells expressing a promiscuous G protein (e.g., G16g44)
T4 sequence (P59540 1-309): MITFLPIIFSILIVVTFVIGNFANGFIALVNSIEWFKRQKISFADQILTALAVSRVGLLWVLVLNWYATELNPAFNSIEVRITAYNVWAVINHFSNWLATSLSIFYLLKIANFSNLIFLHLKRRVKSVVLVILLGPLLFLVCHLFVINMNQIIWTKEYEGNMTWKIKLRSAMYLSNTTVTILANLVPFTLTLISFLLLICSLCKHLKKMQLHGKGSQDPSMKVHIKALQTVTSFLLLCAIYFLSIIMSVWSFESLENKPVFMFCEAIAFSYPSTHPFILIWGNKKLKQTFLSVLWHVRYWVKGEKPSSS
Method: as §1
The above protocol was carried out using 16 different unsaturated fatty acids. A particular T2R receptor was identified as being antagonized by a particular unsaturated fatty acid if it triggered a >25% block of agonist's cellular response at 200 μM concentration of unsaturated fatty acid. […] Table 2 indicates the sixteen (16) compounds tested by their compound number from Table 1 above. The 18 bitter taste receptors screened are the human bitter taste receptors we named. T2R01 (TAS2R01), T2R03 (TAS2R03), T2R04 (TAS2R04), T2R07 (TAS2R07), T2R08 (TAS2R08), T2R09 (TAS2R09), T2R10 (TAS2R10), T2R13 (TAS2R13), T2R14 (TAS2R14), T2R16 (TAS2R16), T2R54 (TAS2R39, T2R61 (TAS2R43), T2R63 (TA2R20), T2R64 (TAS2R31), T2R65 (TAS2R19), T2R67 (TAS2R50), T2R71 (TAS2R41), and T2R75 (TAS2R46). The corresponding IUPHAR nomenclature for each receptor is given in parenthesis. In Table 2, these receptors are identified by the last two digits. For example, T2R01 is indicated as 01. Table 2 reports the percentage block of cellular response over baseline at an unsaturated fatty acid concentration of 200 µM.

T2R64 (TAS2R31) = target: T5, T2R64 (TAS2R31) (Homo sapiens, UniProt P59538); experiment: FLIPR calcium assay, block of bitter agonist response, T2R64
T5 construct: expressed in transfected cells; host or cells: cells expressing a promiscuous G protein (e.g., G16g44)
T5 sequence (P59538 1-309): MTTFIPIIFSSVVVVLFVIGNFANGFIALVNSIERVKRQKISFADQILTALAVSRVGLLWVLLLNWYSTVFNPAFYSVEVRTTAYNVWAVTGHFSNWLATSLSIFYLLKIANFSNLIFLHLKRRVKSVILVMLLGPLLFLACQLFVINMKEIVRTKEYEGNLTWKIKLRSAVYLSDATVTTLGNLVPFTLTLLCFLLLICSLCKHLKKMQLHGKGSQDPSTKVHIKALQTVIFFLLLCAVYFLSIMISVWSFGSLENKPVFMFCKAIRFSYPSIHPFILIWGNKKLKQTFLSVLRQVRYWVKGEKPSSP
Method: as §1, §2

T2R04 (TAS2R04) = target: T6, T2R04 (TAS2R04) (Homo sapiens, UniProt Q9NYW5); experiment: FLIPR calcium assay, block of bitter agonist response, T2R04
T6 construct: expressed in transfected cells; host or cells: cells expressing a promiscuous G protein (e.g., G16g44)
T6 sequence (Q9NYW5 1-299): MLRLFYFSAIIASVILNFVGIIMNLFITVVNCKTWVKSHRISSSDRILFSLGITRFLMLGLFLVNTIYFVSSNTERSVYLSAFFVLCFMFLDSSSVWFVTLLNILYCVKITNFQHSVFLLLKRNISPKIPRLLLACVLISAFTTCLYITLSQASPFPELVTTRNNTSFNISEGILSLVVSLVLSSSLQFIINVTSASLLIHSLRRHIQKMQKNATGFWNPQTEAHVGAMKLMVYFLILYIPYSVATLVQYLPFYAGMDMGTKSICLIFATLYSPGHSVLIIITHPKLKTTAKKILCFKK
Method: as §1, §2

## CC(C)=CCC/C(C)=C/C(=O)O [Compound 129]
T2R61 (TAS2R43)
  percentage block of cellular response over baseline, 61: >90%
T2R65 (TAS2R19)
  percentage block of cellular response over baseline, 65: >35%
T2R09 (TAS2R09)
  percentage block of cellular response over baseline, 09: 30%
T2R75 (TAS2R46)
  percentage block of cellular response over baseline, 75: 50%
T2R64 (TAS2R31)
  percentage block of cellular response over baseline, 64: >85%
T2R04 (TAS2R04)
  percentage block of cellular response over baseline, 04: >90%
